Test system: subjects with psoriasis
Experiment: erythema resolution in psoriasis plaques after topical administration
Type: in vivo, human
Conditions: 0.5% by weight in cosmetic composition, topical twice daily for one week; two subjects, elbows; observed day 7
Procedure: In another method, an effective amount of hypoestoxide crude extract, hypoestes rosea dried leaf powder or a compound of formula I, in a cosmetic composition or in isolation, is applied to the host's skin to alleviate psoriasis. In a preferred embodiment, 0.5% by weight of pure hypoestoxide in a cosmetic composition was applied to two subjects with psoriasis. Topical administration was performed twice daily for one week at the subjects' job sites. Subjects had crusted erythematous plaques on their elbows. The cosmetic composition consisted of the following ingredients: multi-fruit complex, cetearyl alcohol and ceteareth 20, glyceryl stearate, cetyl alcohol, tocopherol, vitamin A palmatate, allantoin, lanolin, ascorbic acid, botanical extract, xanthan gum, ceteth-20 and propylparaben. Erythema resolution was noted by observation of the subjects' plaques on day 7.

C=C1C(=O)C[C@H]2C[C@@H]3O[C@@]3(C)CC[C@@H]3O[C@@]3(C)C[C@@H](OC(C)=O)[C@H]1C2(C)C [hypoestoxide]
Erythema resolution of crusted erythematous plaques: significant erythema resolution
